In the supplement of paper PMC13380429:

Experiments:
Conditions in all cases: 72 h
HepG2 [1] = test: relative viability EC50 (midpoint between 100% and the lowest measured viability); higher = less toxic
Vero E6 [2] = test: as above
U2OS [3] = test: as above
Caco-2 [4] = test: as above
HepG2 [5] = test: drug sensitivity score (DSS) for viability; higher = more toxic; extreme values may be limits of the assay
Vero E6 [6] = test: as above
U2OS [7] = test: as above
Caco-2 [8] = test: as above
Calu-3 [9] = test: as above
HepG2 [10] = test: cell viability relative to DMSO; higher = less toxic
Vero E6 [11] = test: as above
U2OS [12] = test: as above
Caco-2 [13] = test: as above
Calu-3 [14] = test: as above
Calu-3 [15] = test: relative viability EC50 (midpoint between 100% and the lowest measured viability); higher = less toxic

| Structure (SMILES) | relative viability EC50 (HepG2 [1]) | relative viability EC50 (Vero E6 [2]) | relative viability EC50 (U2OS [3]) | relative viability EC50 (Caco-2 [4]) | drug sensitivity score (HepG2 [5]) | drug sensitivity score (Vero E6 [6]) | drug sensitivity score (U2OS [7]) | drug sensitivity score (Caco-2 [8]) | drug sensitivity score (Calu-3 [9]) | cell viability (HepG2 [10]; 1 nM) | cell viability (HepG2 [10]; 10 nM) | cell viability (HepG2 [10]; 100 nM) | cell viability (HepG2 [10]; 1000 nM) | cell viability (HepG2 [10]; 10000 nM) | cell viability (Vero E6 [11]; 1 nM) | cell viability (Vero E6 [11]; 10 nM) | cell viability (Vero E6 [11]; 100 nM) | cell viability (Vero E6 [11]; 1000 nM) | cell viability (Vero E6 [11]; 10000 nM) | cell viability (U2OS [12]; 1 nM) | cell viability (U2OS [12]; 10 nM) | cell viability (U2OS [12]; 100 nM) | cell viability (U2OS [12]; 1000 nM) | cell viability (U2OS [12]; 10000 nM) | cell viability (Caco-2 [13]; 1 nM) | cell viability (Caco-2 [13]; 10 nM) | cell viability (Caco-2 [13]; 100 nM) | cell viability (Caco-2 [13]; 1000 nM) | cell viability (Caco-2 [13]; 10000 nM) | cell viability (Calu-3 [14]; 1 nM) | cell viability (Calu-3 [14]; 10 nM) | cell viability (Calu-3 [14]; 100 nM) | cell viability (Calu-3 [14]; 1000 nM) | cell viability (Calu-3 [14]; 10000 nM) | relative viability EC50 (Calu-3 [15]) |
| --- | --- | --- | --- | --- | --- | --- | --- | --- | --- | --- | --- | --- | --- | --- | --- | --- | --- | --- | --- | --- | --- | --- | --- | --- | --- | --- | --- | --- | --- | --- | --- | --- | --- | --- | --- |
| CN1[C@@H]2CC[C@H]1C[C@@H](OC1c3ccccc3CCc3ccccc31)C2 [deptropine] | > 10 µM | > 10 µM | > 10 µM | > 10 µM | 1 | 1.6 | 0 | 0.3 | 1.4 | 102% | 96.3% | 102% | 98.6% | 76.7% | 96.4% | 93.8% | 98.8% | 93.8% | 77.3% | 101% | 106% | 99.9% | 103% | 93% | 92.1% | 97.5% | 96.3% | 92.5% | 83.4% | 98.8% | 107% | 108% | 97.8% | 72.8% | – |
| Cc1cc(C)c(N(Cc2ccccc2)S(=O)(=O)c2ccc(OCCNC(=O)c3cc4ccccc4o3)cc2)c(C(=O)NO)c1 | 2.43 µM | 3.55 µM | – | 1.77 µM | 4.3 | 2.5 | 1.9 | 5 | 1.1 | 93.4% | 98.9% | 91% | 94.5% | 37.8% | 105% | 107% | 105% | 104% | 47% | 104% | 96.3% | 100% | 98.5% | 63.9% | 94.1% | 101% | 105% | 88.8% | 42% | 95.2% | 103% | 96.9% | 99.4% | 73.4% | – |
| Cc1sc2c(c1C)C(c1ccc(Cl)cc1)=N[C@@H](CC(=O)Nc1ccc(OCCOCCOCCOCCNc3cccc4c3C(=O)N(C3CCC(=O)NC3=O)C4=O)cc1)c1nnc(C)n1-2 (some centres undefined) [ARV-825] | 0.381 µM | 1.55 µM | 0.577 µM | 0.184 µM | 12.3 | 8.3 | 9.9 | 12 | 5 | 95.4% | 103% | 89.9% | 40.5% | 25.2% | 94.6% | 105% | 91% | 76.3% | 11% | 95.4% | 93.6% | 96.9% | 51% | 31.7% | 91.4% | 92.6% | 90.1% | 44% | 51.7% | 95.1% | 91.4% | 111% | 72% | 62.9% | – |
| C[C@@H]1CCC[C@H](C)N1NC(=O)c1ccc(Cl)c(S(N)(=O)=O)c1 [clopamide] | – | > 10 µM | – | > 10 µM | – | 0 | – | 0 | 0 | – | – | – | – | – | 99.4% | 102% | 104% | 99.4% | 105% | – | – | – | – | – | 94.5% | 104% | 110% | 105% | 104% | 102% | 106% | 104% | 104% | 95.1% | > 10 µM |
| Cc1cccc(Nc2ccncc2S(=O)(=O)NC(=O)NC(C)C)c1 [torasemide] | – | > 10 µM | – | > 10 µM | – | 0 | – | 0 | 0.1 | – | – | – | – | – | 105% | 101% | 102% | 99.2% | 103% | – | – | – | – | – | 102% | 112% | 96.7% | 103% | 96.2% | 100% | 100% | 96.5% | 110% | 85.6% | > 10 µM |
| CC[C@H](c1ccc(O)cc1)[C@@H](CC)c1ccc(O)cc1 [hexestrol] | > 10 µM | > 10 µM | > 10 µM | > 10 µM | 0 | 0 | 0 | 0 | – | 92.7% | 96.2% | 93.2% | 109% | 116% | 94% | 100% | 92.2% | 99% | 108% | 97.4% | 95.2% | 96.7% | 95.7% | 100% | 104% | 97.4% | 98.2% | 95% | 101% | – | – | – | – | – | – |
| Cc1ncc([N+](=O)[O-])n1CC(O)CN1CCOCC1 (centres undefined) [morinidazole] | > 10 µM | > 10 µM | > 10 µM | > 10 µM | 0 | 0 | 0 | 0 | – | 96.3% | 108% | 94.2% | 96.6% | 102% | 99.7% | 97.1% | 96.3% | 96.7% | 101% | 101% | 95.1% | 106% | 104% | 101% | 103% | 92% | 100% | 109% | 102% | – | – | – | – | – | – |
